Measured values from US10857180B2, “Pharmaceutical composition for improving health, cure abnormalities and degenerative disease, achieve anti-aging effect of therapy and therapeutic effect on mammals and method thereof” (priority 2014, dated 2020).
Like-named read-outs stand apart in the source and are kept apart here.

Key:
[1] = tested on: renal cell carcinoma (PA) cells; test: Immunocytochemistry (H-Score) of PA cells; type: cell-based, rat
Experimental: When making the immunocytochemistry (ICC) assay, cells on microscope glasses (cytospin preparations) were fixed in the solution (methanol+acetone 1:1) for 2 hours at t 20° C. and incubated with 1% solution of bovine serum albumin (BSA) for 20 minutes. Then the monoclonal antibodies—CD44 (Diagnostic BioSystems), E-cadherin (ThermoScientific), N-cadherin (NeoMarker, BioLegend)—were applied for 60 minutes, after which the Poly Vue imaging system conjugated with peroxidase was used and the enzyme activity was detected using diaminobenzidine (ThermoScientific) as a substrate.
After the immunocytochemical reaction the preparations were washed with water and counterstained with hematoxylin-eosin (for 15-30 seconds). The results were analyzed by counting cells with expression (brown colored cells), using a light microscope and were assessed using the classical H-Score method: S=1×A+2×B+3×C, where S is the H-Score index giving a range of 0 (protein is not detected) to 300 (high-level expression in 100% of the cells); A is the percentage of weakly stained cells, B is the percentage of moderately stained cells and C is the percentage of strongly stained cells.

HL-60 cells = test: Morphological and growth characteristics of HL-60 cells; type: cell-based, human; settings: sulfates, living cell culture
Source text: (§1) However, articles about an important role of EMT in the study of lymphomas and leukemias as well have started coming out recently, which is an interesting stage in the research into the tumor process as a whole, since these tumors radically differ from “usual solid neoplasias” in their histogenesis and, accordingly, in their phenotypic characteristics. Thus, such comprehensive research into adhesion proteins and cell cytoskeleton in the tumor cells of Burkitt lymphoma and acute promyelocyte leukemia after the action of the group of components under study is a relevant and contemporary attempt of a deeper analysis of the modification of a cell phenotype of tumor cells in order to assess changes in the degree of their malignancy. Materials and methods for leukemia cell lines HL-60 and Namalva and cell culture conditions will now be described. […] The first plate was for coloring cells with trypan blue and the second one was for the MTT assay.
After preparation of the corresponding concentrations of the components, they were introduced into appropriate wells of the plate in which HL-60 or Namalva cell were in complete medium. The volume of the culture medium with cells was 100 mcl per well and the concentration of cells in the suspension was 3×10^5 cells/ml (3×10^6/plate). […]

[2] = tested on: stem cells derived from rat fibroblasts (RF); type: cell-based
[3] = tested on: Burkitt lymphoma (Namalwa line) cells; test: Immunocytochemical analysis (H-Score) of Namalwa cells; type: cell-based, human; settings: for amount of N-cadherin-positive cells: exception ^39K 2 mg/ml and ^24Mg 2 mg/ml
Source text: as §1
Initial concentrations of the components.
After preparation of the corresponding concentrations of the components, they were introduced into appropriate wells of the plate in which HL-60 or Namalva cell were in complete medium. The volume of the culture medium with cells was 100 mcl per well and the concentration of cells in the suspension was 3×10^5 cells/ml (3×10^6/plate). After the components were placed into the wells, the final concentration (component+cells in the suspension) became smaller and corresponded to the values given in the Table of Concentration Characteristics.
After the incubation the medium was removed from the wells and the formed tetraformazan crystals were dissolved in 50 mcl of dimethylsulphoxide (Applichem, Germany). The results were fixed using a multi-well spectrophotometer with an excitation wave length of 540 nm. The percent of inhibition of cell viability was calculated using the following formula: IR=(1−A 540 (experiment)/A540 (control))×100%. In carrying out the immunocytochemical (ICC) assay, cells on microscope glasses (cytospin preparations) were fixed in the solution (methanol+acetone (1:1)) for 2 hours at t−20° C. and then incubated with a 1% solution of bovine serum albumin (BSA) for 20 minutes.
Then such monoclonal antibodies as CD44, N-cadherin, ICAM and IgM were applied for the period of time specified in the manufacturer's instructions (30 to 60 minute time intervals), after which Poly Vue imaging system conjugated with peroxidase was used and the enzyme activity was detected using diaminobenzidine (ThermoScientific) as a substrate. After the immunocytochemical reaction, the preparations were rinsed with water and counterstained with hematoxylin and eosin for 15 to 30 seconds. The results were analyzed by a quantitative estimation of cells with the marker expression (increased brown color of cells corresponded to a higher degree of expression of the marker) using a light microscope and assessed using the classical H-Score method: S=1×A+2×B+3×C, where S is the H-Score index the values of which are within the scope of 0 (protein is not detectable) to 300 (high-level expression in 100% of the cells), A is a percentage of weakly stained cells, B is the percentage of moderately stained cells, and C the percentage of strongly stained cells.

A-549 cell line = test: Cytogenetic analysis (micronucleus test) of A-549 cells; type: cell-based, human; settings: for increase of cells with protrusions: A-549
Experimental: Advanced Micronucleus Test was used to assess the cytogenetic characteristics of cells after their exposure to the action of the test group of components.
Cytogenetic analysis was carried out after 48 hours of exposure of the cells to the action of the components. For cytogenetic analysis, the cells were incubated in hypotonic solution KCl (0.54%) (Reahim, Ukraine) for 40 minutes at +37° C. Then they were fixed with a mixture of methyl alcohol (Reahim, Ukraine) and acetic acid (Himlaborreaktiv, Ukraine) (3:1) with replacing the fixative three times. All fixed cell suspensions were applied on cold wet glasses, dried and stained with Giemsa stain (Sigma, Germany). The cytogenetic preparations were analyzed using a binocular microscope Sari Zeiss, AxioStarPlus (Germany) with magnification of x 1000. The following quantitative characteristics and stages of cell division were analyzed on the preparations: mitoses, cells with premature chromosome condensation (PCC), cells with micronuclei (CMN), apoptotic cells and cells with nuclear protrusions (protrusions) which were calculated for 1000 cells and expressed in per mille (%).

[4] = tested on: human non-small cell lung cancer (line A-549) cells; test: Immunocytochemistry (H-Score) of A-549 cells; type: cell-based
Experimental: When making the immunocytochemistry (ICC) assay, cells on microscope glasses (cytospin preparations) were fixed in the solution (methanol+acetone 1:1) for 2 hours at t 20° C. and incubated with 1% solution of bovine serum albumin (BSA) for 20 minutes. Then the monoclonal antibodies-CD44 (Diagnostic BioSystems), E-cadherin (ThermoScientific), N-cadherin (NeoMarker, BioLegend), SLUG (GeneTex)—were applied for the time period specified by the manufacturer (30 to 60 minutes), after which the Poly Vue imaging system conjugated with peroxidase was used and the enzyme activity was detected using diaminobenzidine (ThermoScientific) as a substrate. After the immunocytochemical reaction the preparations were washed with water and counterstained with hematoxylin-eosin (for 15 to 30 seconds).
The results were analyzed by counting cells with expression (brown colored cells) using a light microscope, and were assessed using the classical H-Score method: S=1×A+2×B+3×C, where S is the H-Score index giving a range of 0 (protein is not detected) to 300 (high-level expression in 100% of the cells); A is the percentage of weakly staining cells, B is the percentage of moderately staining cells and C is the percentage of strongly staining cells.

[5] = dose not stated, 72 hours in the control

## O=S(=O)([O-])[O-].[24Mg+2] [^24Mg]
[1]; ^24Mg 2 mg/ml
  number of CD44-positive cells: did not differ from that of control cells
[1]; ^24Mg 3.5 mg/ml
  number of CD44-positive cells: increase significantly
[1]; ^24Mg in 2 doses
  number of E-cadherin-positive cells: increase in the number
  number of cells expressing N-cadherin: slight increase
HL-60 cells
  morphological and growth characteristics (adhesion): significant enhancement of adhesion of cells to the substrate
[2]; ^24Mg 2 mg/ml
  time of restoration of the cell monolayer: 72 h
[2]; ^24Mg 3 mg/ml
  time of restoration of the cell monolayer: 65 to 72 h
[2]; ^24Mg 4 mg/ml
  time of restoration of the cell monolayer: 82 h
[3]
  IgM marker expression level: decrease in the expression level
  amount of N-cadherin-positive cells: in most cases increased

## [39K+].[Cl-] [^39K]
[1]; ^39K 0.4 mg/ml
  number of E-cadherin-positive cells: significantly increased
[1]; ^39K 2 mg/ml
  number of E-cadherin-positive cells: significantly reduced
[1]; ^39K both doses
  number of CD44-positive cells: significantly increased
[1]; ^39K dose D2
  N-cadherin: almost complete inhibition
A-549 cell line
  increase of cells with protrusions: 15 fold
[2]; ^39K 1 mg/ml
  time of restoration of the cell monolayer: 72 h
[2]; ^39K 2 mg/ml
  time of restoration of the cell monolayer: 96 h
[2]; [5]
  time of restoration of the cell monolayer: 72 h
[4]
  number of slug-positive cells with nuclear expression: significantly decreased
[4]; dose of IC50
  number of cells with E-cadherin: inhibition
[3]
  IgM marker expression level: decrease in the expression level
  expression of CD44 marker: significant inhibition
  amount of N-cadherin-positive cells: in most cases increased

## O=S(=O)([O-])[O-].[64Zn+2] [^64Zn]
[1]; 3.2 mcg/ml
  CD44 marker positive cells, H-Score scale: 126 units
[1]; ^64Zn 0.128 mcg/ml
  N-cadherin positive cells: slight increase
  number of E-cadherin-positive cells: increased number
[1]; ^64Zn 3.2 mcg/ml
  N-cadherin-positive cells: substantial increase
  number of E-cadherin-positive cells: decrease in the number
A-549 cell line
  increase of cells with protrusions: ~10 fold
A-549 cell line; ^64Zn 20 mcg/ml, 48 hours
  level of nuclear abnormalities vs control: fifty times as high as the baseline
  level of nuclear abnormalities vs dose of 10 mcg/ml: triple increase
HL-60 cells
  morphological and growth characteristics (adhesion): significant enhancement of adhesion of cells to the substrate
[2]; [5]
  time of restoration of the cell monolayer: 72 h
[4]
  slug-positive cells with cytoplasmic expression: decrease
[3]
  IgM marker expression level: decrease in the expression level
  expression of CD44 marker: significant inhibition
  amount of N-cadherin-positive cells: in most cases increased
[3]; ^64Zn as sulfate 5 mcg/ml
  number of ICAM-positive cells, H-Score method: 210
